This passage reports GI50 and TGI results from PubChem BioAssay (NCI).

Among the test systems are MOLT-4 leukemia; HL-60(TB) leukemia; NCI-H226 lung; DU-145 prostate; NCI/ADR-RES ovarian; UACC-62 melanoma; OVCAR-8 ovarian; SNB-75 CNS; SK-MEL-5 melanoma; HCT-15 colon.
Common to all, as to test: NCI tumour cell line growth inhibition, 48 h

“And” between values parts separate entries of the source, which are not always exact repeats. Identical values can stand only once.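 Test compounds were applied to cells in 96-well plates for 48 hours at 5 doses. The concentration for 50% growth inhibition is given as GI50. The concentration for full growth arrest is given as TGI.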 A value given as a limit tells only on which side of the number the result lay.

As for `C=CC(=O)N1CCC(c2ccc(C(N)=O)c(-c3ccc(Oc4ccccc4)cc3)n2)CC1`, the GI50 in the assay with MOLT-4 leukemia is 27.3 µM; in the assay with HL-60(TB) leukemia, 19.5 µM; in the assay on NCI-H226 lung it was 20.3 µM; with DU-145 prostate, 31.7 µM; with NCI/ADR-RES ovarian it was 30.3 µM; in the assay on UACC-62 melanoma, 30 µM. Moreover, the GI50 with OVCAR-8 ovarian was 30.9 µM; in the assay with SNB-75 CNS, 17 µM; in the assay with SK-MEL-5 melanoma, 20.6 µM; in the assay with HCT-15 colon, 25.2 µM. Also, the TGI in the assay with MOLT-4 leukemia was over 100 µM; in the assay on HL-60(TB) leukemia, 58.8 µM; with NCI-H226 lung, 79.2 µM; with DU-145 prostate, over 100 µM; with NCI/ADR-RES ovarian, over 100 µM; in the assay on UACC-62 melanoma, over 100 µM. The TGI with OVCAR-8 ovarian was over 100 µM; with SNB-75 CNS, over 100 µM; in the assay with SK-MEL-5 melanoma it was 41.9 µM; in the assay on HCT-15 colon, over 100 µM.
With `COc1ccc(-c2cc(=O)n(-c3nc4ccccc4[nH]3)[nH]2)cc1OC`, the GI50 in the assay with MOLT-4 leukemia is 0.261 µM; in the assay with HL-60(TB) leukemia, 3.59 µM; in the assay on NCI-H226 lung, 15 µM; with DU-145 prostate it was 17.5 µM; with NCI/ADR-RES ovarian, 3.57 µM; in the assay on UACC-62 melanoma, 3.79 µM. Further, the GI50 with OVCAR-8 ovarian is 4.43 µM; in the assay on SNB-75 CNS, 4.99 µM; in the assay with SK-MEL-5 melanoma, 4.08 µM; with HCT-15 colon, 3.7 µM. The TGI in the assay on MOLT-4 leukemia was 0.648 µM; in the assay with HL-60(TB) leukemia it was 19.6 µM; with NCI-H226 lung it was 67.1 µM; in the assay with DU-145 prostate it was over 100 µM; in the assay on NCI/ADR-RES ovarian it was 33.3 µM; with UACC-62 melanoma it was 24.1 µM. Further, the TGI in the assay with OVCAR-8 ovarian was 63.5 µM; in the assay on SNB-75 CNS, 81.1 µM; in the assay with SK-MEL-5 melanoma it was 34.9 µM; with HCT-15 colon, over 100 µM.
In the case of `OCCCCC#Cc1ccccc1C#Cc1ccc(O)cc1`, the GI50 with MOLT-4 leukemia was 9.96 µM; in the assay on HL-60(TB) leukemia, 18.3 µM; in the assay on NCI-H226 lung it was 18.3 µM; in the assay on DU-145 prostate, 16.8 µM; in the assay on NCI/ADR-RES ovarian it was 17.3 µM; with UACC-62 melanoma, 15.7 µM. Also, the GI50 in the assay on OVCAR-8 ovarian is 17.1 µM; in the assay with SNB-75 CNS, 13.6 µM; in the assay on SK-MEL-5 melanoma it was 17.7 µM; in the assay on HCT-15 colon, 14.1 µM. Also, the TGI was determined as 38.9 µM in the assay with MOLT-4 leukemia; 40.5 µM in the assay with HL-60(TB) leukemia; 39.1 µM in the assay on NCI-H226 lung; 33.6 µM in the assay with DU-145 prostate; 35.2 µM in the assay on NCI/ADR-RES ovarian; 29.6 µM with UACC-62 melanoma. In addition, the TGI in the assay on OVCAR-8 ovarian is 34.9 µM; in the assay with SNB-75 CNS it was 29.3 µM; in the assay with SK-MEL-5 melanoma, 32.2 µM; with HCT-15 colon, 28 µM.
With `O=C1NC(N/N=C\C(O)C(O)C(O)C(O)CO)=N/C1=C/c1ccccc1` (stereo not given), the GI50 with MOLT-4 leukemia is 22.3 µM and 2.74 µM and 25.7 µM; in the assay on HL-60(TB) leukemia it was 77.2 µM and 41.8 µM and > 100 µM; with NCI-H226 lung, > 100 µM and 19.5 µM; with DU-145 prostate it was > 100 µM and 17.6 µM; in the assay with OVCAR-8 ovarian, > 100 µM and 22.8 µM; in the assay on SNB-75 CNS, > 100 µM and 24.9 µM. Besides, the GI50 is 44.5 µM and 14.8 µM and > 100 µM in the assay with SK-MEL-5 melanoma; 51.9 µM and 12.7 µM and > 100 µM with HCT-15 colon. In addition, the TGI in the assay on HL-60(TB) leukemia is over 100 µM; with NCI-H226 lung it was > 100 µM and 40.8 µM; in the assay with DU-145 prostate it was > 100 µM and 48.9 µM; in the assay with NCI/ADR-RES ovarian it was over 100 µM; in the assay with UACC-62 melanoma, over 100 µM; in the assay with OVCAR-8 ovarian, > 100 µM and 52.5 µM. The TGI was > 100 µM and 54 µM with SNB-75 CNS; > 100 µM and 29.2 µM with SK-MEL-5 melanoma; > 100 µM and 33.8 µM in the assay on HCT-15 colon.
In the case of `CCC(=O)N1C/C(=C/c2ccc(Cl)cc2)C(=O)/C(=C/c2ccc(Cl)cc2)C1`, the GI50 is 0.974 µM with MOLT-4 leukemia; 1.25 µM in the assay with HL-60(TB) leukemia; 1.15 µM in the assay with NCI-H226 lung; 1.13 µM in the assay on DU-145 prostate; 1.79 µM with NCI/ADR-RES ovarian; 0.728 µM with UACC-62 melanoma. Further, the GI50 in the assay on OVCAR-8 ovarian is 0.451 µM; in the assay with SNB-75 CNS, 1.37 µM; in the assay on SK-MEL-5 melanoma, 1.46 µM; in the assay with HCT-15 colon, 0.386 µM. Besides, the TGI in the assay with MOLT-4 leukemia is 5.87 µM; with HL-60(TB) leukemia it was 5.03 µM; in the assay with NCI-H226 lung it was 3.5 µM; with DU-145 prostate it was 2.65 µM; in the assay on NCI/ADR-RES ovarian it was 12.2 µM; in the assay on UACC-62 melanoma it was 1.94 µM. Also, the TGI in the assay on OVCAR-8 ovarian was 2.12 µM; in the assay on SNB-75 CNS, 3.1 µM; with SK-MEL-5 melanoma it was 2.81 µM; in the assay with HCT-15 colon, 1.25 µM.
As for `O=S(=O)(O)O`, the TGI in the assay with MOLT-4 leukemia worked out at 1680 µM; in the assay with HL-60(TB) leukemia, 1300 µM; in the assay with NCI-H226 lung it was 2390 µM; with DU-145 prostate it was 1620 µM; with NCI/ADR-RES ovarian, 2360 µM; with UACC-62 melanoma, 1940 µM. The TGI in the assay with OVCAR-8 ovarian is 1830 µM; in the assay with SNB-75 CNS it was 2290 µM; with SK-MEL-5 melanoma it was 2200 µM; with HCT-15 colon, 1820 µM.
On to `O=[N+]([O-])c1cccc(/C=N/NC2=CS(=O)(=O)C=C2)c1`, for which the TGI in the assay on MOLT-4 leukemia, with HL-60(TB) leukemia, in the assay on NCI-H226 lung, in the assay with DU-145 prostate, with NCI/ADR-RES ovarian and in the assay with UACC-62 melanoma was over 100 µM each time. Further, the TGI in the assay with OVCAR-8 ovarian, in the assay on SNB-75 CNS, in the assay with SK-MEL-5 melanoma and with HCT-15 colon was over 100 µM in each case.
With `Cc1ccc(/C=C(\C#N)c2cc3ccccc3n2C)cc1`, the GI50 with MOLT-4 leukemia was 0.467 µM; in the assay on HL-60(TB) leukemia, 0.277 µM; with NCI-H226 lung, 1.45 µM; in the assay with DU-145 prostate, 0.469 µM; in the assay on NCI/ADR-RES ovarian, 0.361 µM; in the assay on UACC-62 melanoma, 0.278 µM. Also, the results for the GI50 with OVCAR-8 ovarian, with SK-MEL-5 melanoma and in the assay on HCT-15 colon were 0.565 µM, 0.647 µM and 0.303 µM, respectively. Further, the TGI is over 100 µM in the assay with MOLT-4 leukemia; 2.56 µM in the assay on HL-60(TB) leukemia; over 100 µM with NCI-H226 lung; over 100 µM with DU-145 prostate; over 100 µM in the assay with NCI/ADR-RES ovarian; over 100 µM in the assay on UACC-62 melanoma. Moreover, the TGI with OVCAR-8 ovarian, in the assay on SK-MEL-5 melanoma and in the assay on HCT-15 colon was over 100 µM throughout.
